# Experimental data: patent US9682976B2, “Protein kinase C inhibitors and uses thereof” (Rigel Pharmaceuticals, Inc., priority 2012, dated 2017)
# Test system: PKC mediated IL-2 production
# Test: IL-2 ELISA, human primary T cell, anti CD3+CD28+
# Assay type: cell-based
# Settings: Homo sapiens, T-cell, 24 h, human primary T cells stimulated with αCD3 and αCD28, 24 hours
# Method in brief: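 IL-2 was quantified by ELISA in 24 h supernatants from primary human T cells given a 1 h compound pre-treatment at 37° C. These cells had been expanded from blood mononuclear cells on αCD3/αCD28 with IL-2, and the IL-2 was removed by washing. Stimulation used plate-bound αCD3 ([…]) plus αCD28 (5 μg/ml); the counter assay used PMA (0.5 ng/ml) with ionomycin (0.1 uM) instead.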
row,EC50 [nM],Structure (SMILES)
1,1000 to 10000,"COCCOc1ccc(Nc2ncc(F)c(N[C@@H]3C[C@@H]4CCCN4C(C)(C)C3)n2)c(F)c1OCCOC [Compound 160, N4-((7R,8aS)-5,5-dimethyloctahydroindolizin-7-yl)-5-fluoro-N2-(2-fluoro-3,4-bis(2-methoxyethoxy)phenyl)pyrimidine-2,4-diamine]"
2,< 100,"CC1(C)C[C@H](Nc2nc(Nc3ccc(Cl)c(-n4nnnc4C4CC4)c3)ncc2F)C[C@@H]2CCCN21 [Compound 145, N2-(4-chloro-3-(5-cyclopropyl-1H-tetrazol-1-yl)phenyl)-N4-((7R,8aS)-5,5-dimethyloctahydroindolizin-7-yl)-5-fluoropyrimidine-2,4-diamine]"
3,< 100,"COc1ccc(Nc2ncc(Cl)c(N[C@@H]3C[C@@H]4CCCN4C(C)(C)C3)n2)cc1-n1nnnc1C [Compound 151, 5-chloro-N4-((7R,8aS)-5,5-dimethyloctahydroindolizin-7-yl)-N2-(4-methoxy-3-(5-methyl-1H-tetrazol-1-yl)phenyl)pyrimidine-2,4-diamine]"
4,< 100,"CC1(C)C[C@H](Nc2nc(Nc3cc(-n4nnnc4C4CC4)ccc3F)ncc2F)C[C@@H]2CCCN21 [Compound 144, N2-(5-(5-cyclopropyl-1H-tetrazol-1-yl)-2-fluorophenyl)-N4-((7R,8aS)-5,5-dimethyloctahydroindolizin-7-yl)-5-fluoropyrimidine-2,4-diamine]"
5,100 to 500,"Cn1nnn(-c2cc(Nc3ncc(F)c(N[C@@H]4C[C@@H]5CCCN5C(C)(C)C4)n3)c(F)cc2OCC2CCOCC2)c1=O [Compound 170, 1-(5-((4-(((7R,8aS)-5,5-dimethyloctahydroindolizin-7-yl)amino)-5-fluoropyrimidin-2-yl)amino)-4-fluoro-2-((tetrahydro-2H-pyran-4-yl)methoxy)phenyl)-4-methyl-1,4-dihydro-5H-tetrazol-5-one]"
6,100 to 500,"Cn1nnn(-c2cc(Nc3ncc(F)c(N[C@@H]4C[C@@H]5CCCN5C(C)(C)C4)n3)c(F)cc2OCC(O)C(F)(F)F)c1=O (stereo partly drawn) [Compound 230, 1-(5-((4-(((7R,8aS)-5,5-dimethyloctahydroindolizin-7-yl)amino)-5-fluoropyrimidin-2-yl)amino)-4-fluoro-2-(3,3,3-trifluoro-2-hydroxypropoxy)phenyl)-4-methyl-1,4-dihydro-5H-tetrazol-5-one]"
7,100 to 500,"Cn1nnn(-c2cc(Nc3ncc(F)c(N[C@@H]4C[C@@H]5CCCN5C(C)(C)C4)n3)c(F)cc2O[C@@H]2CCOC2)c1=O [Compound 109, 1-(5-((4-(((7R,8aS)-5,5-dimethyloctahydroindolizin-7-yl)amino)-5-fluoropyrimidin-2-yl)amino)-4-fluoro-2-(((R)-tetrahydrofuran-3-yl)oxy)phenyl)-4-methyl-1,4-dihydro-5H-tetrazol-5-one]"
8,100 to 500,"Cn1nnn(-c2cc(Nc3ncc(F)c(N[C@@H]4C[C@@H]5C[C@@H](F)CN5C(C)(C)C4)n3)c(F)cc2C2CC2)c1=O [Compound 64, 1-(5-(4-((2R,7R,8aR)-2-fluoro-octahydro-5,5-dimethylindolizin-7-ylamino)-5-fluoropyrimidin-2-ylamino)-2-cyclopropyl-4-fluorophenyl)-4-methyl-1H-tetrazol-5(4H)-one]"
9,< 100,"CC1(C)C[C@H](Nc2nc(Nc3ccc(OCCO)c(C(F)(F)F)c3)ncc2F)C[C@@H]2CCCN21 [Compound 131, 2-(4-((4-(((7R,8aS)-5,5-dimethyloctahydroindolizin-7-yl)amino)-5-fluoropyrimidin-2-yl)amino)-2-(trifluoromethyl)phenoxy)ethan-1-ol]"
10,100 to 500,"Cc1cc(Nc2ncc(F)c(N[C@@H]3C[C@@H]4CCCN4C(C)(C)C3)n2)ccc1OCCO [Compound 134, 2-(4-((4-(((7R,8aS)-5,5-dimethyloctahydroindolizin-7-yl)amino)-5-fluoropyrimidin-2-yl)amino)-2-(methyl)phenoxy)ethan-1-ol]"
11,100 to 500,"Cn1nnn(-c2cc(Nc3ncc(F)c(NC4CC5CCCN5C(C)(C)C4)n3)ccc2OC2COC2)c1=O (single isomer, unassigned) [Compound 39, 1-(5-(5-fluoro-4-(octahydro-5,5-dimethylindolizin-7-ylamino)pyrimidin-2-ylamino)-2-(oxetan-3-yloxy)phenyl)-4-methyl-1H-tetrazol-5(4H)-one]"
12,1000 to 10000,"Cc1ccc(Nc2ncc(F)c(N[C@H]3C[C@@H]4CC(F)(F)CN4C(C)(C)C3)n2)cc1C#N [Compound 44, 5-(4-((7S,8aR)-2,2-difluoro-octahydro-5,5-dimethylindolizin-7-ylamino)-5-fluoropyrimidin-2-ylamino)-2-methylbenzonitrile]"
13,500 to 1000,"Cn1nnn(-c2cc(Nc3ncc(F)c(N[C@@H]4C[C@@H]5CCCN5C(C)(C)C4)n3)c(F)cc2OC[C@H](O)CO)c1=O [Compound 188, 1-(2-((R)-2,3-dihydroxypropoxy)-5-((4-(((7R,8aS)-5,5-dimethyloctahydroindolizin-7-yl)amino)-5-fluoropyrimidin-2-yl)amino)-4-fluorophenyl)-4-methyl-1,4-dihydro-5H-tetrazol-5-one]"
14,500 to 1000,CC1(C)C[C@H](Nc2nc(Nc3cc(S(F)(F)(F)(F)F)ccc3F)ncc2F)C[C@@H]2CCCN21 [Compound 71]
15,< 100,"CC1(C)C[C@H](Nc2nc(Nc3ccc4c(c3)-n3nnnc3C3(CCOCC3)O4)ncc2F)C[C@@H]2CCCN21 [Compound 137, N4-((7R,8aS)-5,5-dimethyloctahydroindolizin-7-yl)-5-fluoro-N2-(2′,3′,5′,6′-tetrahydrospiro[benzo[b]tetrazolo[1,5-d][1,4]oxazine-4,4′-pyran]-8-yl)pyrimidine-2,4-diamine]"

row,Structure (SMILES),EC50 [nM]
1,"Cn1nnn(-c2cc(Nc3ncc(F)c(N[C@@H]4C[C@@H]5CCCN5C(C)(C)C4)n3)c(F)cc2OC2CC(O)C2)c1=O (stereo partly drawn) [Compound 227, 1-(5-((4-(((7R,8aS)-5,5-dimethyloctahydroindolizin-7-yl)amino)-5-fluoropyrimidin-2-yl)amino)-4-fluoro-2-(3-hydroxycyclobutoxy)phenyl)-4-methyl-1,4-dihydro-5H-tetrazol-5-one]",100 to 500

# Same assay, conditions: human primary T cells stimulated with αCD3 and αCD28, 24 hours
row,EC50 [nM],Structure (SMILES)
1,100 to 500,"CC(C)N1CCC(Oc2ccc(Nc3ncc(F)c(N[C@H]4C[C@@H]5CCCN5C(C)(C)C4)n3)cc2OC(F)F)CC1 (single isomer, unassigned) [Compound 9, (R/S, S/R, R/R, S/S)-N^2-(4-(1-isopropylpiperidin-4-yloxy)-3-(difluoromethoxy)phenyl)-5-fluoro-N^4-(octahydro-5,5-dimethylindolizin-7-yl)pyrimidine-2,4-diamine]"
2,1000 to 10000,"CC1(C)Oc2ccc(Nc3ncc(F)c(N[C@@H]4C[C@@H]5CCCN5C(C)(C)C4)n3)cc2-n2nnnc21 [Compound 4, N2-(4,4-dimethyl-4H-benzo[b]tetrazolo[1,5-d][1,4]oxazin-8-yl)-5-fluoro-N4-(octahydro-5,5-dimethylindolizin-7-amine)pyrimidine-2,4-diamine]"
3,1000 to 10000,"CC(C)N1CCC(Oc2ccc(Nc3ncc(F)c(N[C@H]4C[C@H]5CCCN5C(C)(C)C4)n3)cc2OC(F)F)CC1 (single isomer, unassigned) [Compound 7, (R/S, S/R, R/R, S/S)-N^2-(4-(1-isopropylpiperidin-4-yloxy)-3-(difluoromethoxy)phenyl)-5-fluoro-N^4-(octahydro-5,5-dimethylindolizin-7-yl)pyrimidine-2,4-diamine]"
